Results published in PubChem BioAssay AID248 (DTP/NCI, 2004).
Several values for one entry are separate records, joined by “and”; a condition that tells them apart may be missing. Equal entries are not always repeated. Toxic doses and inconclusive results are not listed. Rule as the data show it: active = T/C of 150% or more; inactive = T/C below 125%.

Test system: L1210 leukemia ip in BDF1 mice, survival T/C
Assay: NCI In Vivo Anticancer Drug Screen. Data for tumor model L1210 Leukemia (intraperitoneal) in B6D2F1 (BDF1) mice
Conditions: endpoint: mean survival time, higher = longer survival
In short: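 Tumor cells were implanted, animals were treated, and survival was followed. The result divides the treated measurement by the vehicle-control measurement.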

[1] = dose: 100.0 mg/kg/injection, schedule: Q01DX009 (ip), vehicle: saline with Tween-80
[2] = dose: 100.0 mg/kg/injection, schedule: Q04DX003 (ip), vehicle: saline with Tween-80
[3] = dose: 200.0 mg/kg/injection, schedule: Q04DX003 (ip), vehicle: saline with Tween-80
[4] = dose: 400.0 mg/kg/injection, schedule: Q01DX009 (ip), vehicle: saline with Tween-80
[5] = dose: 100.0 mg/kg/injection, schedule: Q01DX009 (ip), vehicle: Klucel (hydroxypropylcellulose) (HPC)
[6] = dose: 200.0 mg/kg/injection, schedule: Q01DX009 (ip), vehicle: Klucel (hydroxypropylcellulose) (HPC)
[7] = dose: 25.0 mg/kg/injection, schedule: Q04DX003 (ip), vehicle: saline with Tween-80
[8] = dose: 50.0 mg/kg/injection, schedule: Q04DX003 (ip), vehicle: saline with Tween-80
[9] = dose: 12.5 mg/kg/injection, schedule: Q01DX009 (ip), vehicle: saline
[10] = dose: 25.0 mg/kg/injection, schedule: Q01DX009 (ip), vehicle: saline
[11] = dose: 50.0 mg/kg/injection, schedule: Q01DX009 (ip), vehicle: saline
[12] = dose: 100.0 mg/kg/injection, schedule: Q01DX009 (ip), vehicle: saline
[13] = dose: 100.0 mg/kg/injection, schedule: Q04DX003 (ip), vehicle: Klucel (hydroxypropylcellulose) (HPC)
[14] = dose: 200.0 mg/kg/injection, schedule: Q04DX003 (ip), vehicle: Klucel (hydroxypropylcellulose) (HPC)
[15] = dose: 400.0 mg/kg/injection, schedule: Q04DX003 (ip), vehicle: Klucel (hydroxypropylcellulose) (HPC)
[16] = dose: 100.0 mg/kg/injection, schedule: Q04DX003 (ip), vehicle: saline
[17] = dose: 200.0 mg/kg/injection, schedule: Q04DX003 (ip), vehicle: saline

Measured: T/C

CCOc1cc(/C=N/NC(=O)C(O)C(O)C(O)C(O)CO)ccc1O (centres undefined)
inactive: [1] 98 % of control and 103 % of control | dose: 100.0 mg/kg/injection, schedule: Q04DX002 (ip), vehicle: saline with Tween-80 100 % of control and 90 % of control | [2] 95 % of control | dose: 200.0 mg/kg/injection, schedule: Q01DX009 (ip), vehicle: saline with Tween-80 95 % of control and 91 % of control | dose: 200.0 mg/kg/injection, schedule: Q04DX002 (ip), vehicle: saline with Tween-80 108 % of control and 116 % of control | [3] 95 % of control | [4] 88 % of control and 90 % of control | dose: 400.0 mg/kg/injection, schedule: Q04DX002 (ip), vehicle: saline with Tween-80 90 % of control and 91 % of control | dose: 400.0 mg/kg/injection, schedule: Q04DX003 (ip), vehicle: saline with Tween-80 93 % of control

Cc1ccc(OC/C=C/CS(=O)(=O)c2ccc(Cl)cc2)cc1
inactive: dose: 50.0 mg/kg/injection, schedule: Q01DX009 (ip), vehicle: Klucel (hydroxypropylcellulose) (HPC) 98 % of control | dose: 75.0 mg/kg/injection, schedule: Q01DX001 (ip), vehicle: Klucel (hydroxypropylcellulose) (HPC) 96 % of control | [5] 95 % of control | dose: 150.0 mg/kg/injection, schedule: Q01DX001 (ip), vehicle: Klucel (hydroxypropylcellulose) (HPC) 96 % of control | [6] 98 % of control | dose: 300.0 mg/kg/injection, schedule: Q01DX001 (ip), vehicle: Klucel (hydroxypropylcellulose) (HPC) 94 % of control

CCOC(=O)CC/C(=C/c1ccccc1)[N+](=O)[O-]
inactive: [7] 97 % of control and 104 % of control | [8] 94 % of control and 98 % of control | [2] 106 % of control and 107 % of control and 121 % of control | [3] 89 % of control

CON(C)CC(Cl)c1ccccc1 (centres undefined)
inactive: dose: 6.25 mg/kg/injection, schedule: Q01DX009 (ip), vehicle: saline 100 % of control | dose: 6.25 mg/kg/injection, schedule: Q04DX003 (ip), vehicle: saline with Tween-80 98 % of control | [9] 100 % of control | dose: 12.5 mg/kg/injection, schedule: Q04DX003 (ip), vehicle: saline with Tween-80 96 % of control | [10] 92 % of control | [7] 104 % of control | [11] 92 % of control | [8] 96 % of control and 98 % of control

CC1(C)OCC(C(NC(=O)c2ccccc2)C(OC(=O)c2ccccc2)C2COC(C)(C)O2)O1 (centres undefined)
inactive: dose: 100.0 mg/kg/injection, schedule: Q04DX002 (ip), vehicle: Klucel (hydroxypropylcellulose) (HPC) 90 % of control | dose: 200.0 mg/kg/injection, schedule: Q04DX002 (ip), vehicle: Klucel (hydroxypropylcellulose) (HPC) 90 % of control | dose: 400.0 mg/kg/injection, schedule: Q04DX002 (ip), vehicle: Klucel (hydroxypropylcellulose) (HPC) 90 % of control

Cc1ccc(C)n1Cc1ccccc1
inactive: dose: 100.0 mg/kg/injection, schedule: Q04DX003 (ip), vehicle: other 98 % of control | dose: 200.0 mg/kg/injection, schedule: Q04DX003 (ip), vehicle: other 98 % of control | dose: 400.0 mg/kg/injection, schedule: Q04DX003 (ip), vehicle: other 101 % of control

COc1ccc(Cl)cc1NS(=O)(=O)c1ccc(Cl)cc1[N+](=O)[O-]
inactive: [12] 96 % of control | dose: 200.0 mg/kg/injection, schedule: Q01DX009 (ip), vehicle: saline 94 % of control | dose: 400.0 mg/kg/injection, schedule: Q01DX009 (ip), vehicle: saline 100 % of control

CC(=O)Nc1ccc2c(c1)Cc1cc(Br)ccc1-2
inactive: [13] 100 % of control | [14] 100 % of control | [15] 103 % of control

O=P(O)(O)O
inactive: dose: 75.0 mg/kg/injection, schedule: Q04DX003 (ip), vehicle: saline 93 % of control | dose: 150.0 mg/kg/injection, schedule: Q04DX003 (ip), vehicle: saline 98 % of control | dose: 300.0 mg/kg/injection, schedule: Q04DX003 (ip), vehicle: saline 103 % of control

COc1ccccc1C(O)(c1ccccc1)c1ccccc1OC
inactive: [13] 92 % of control | [14] 98 % of control | [15] 97 % of control

O=[N+]([O-])c1cccc(S/N=C/c2ccccc2)c1
inactive: [13] 100 % of control | [14] 95 % of control | [15] 105 % of control

CC(=O)C12OC1CC1C3CCC4=CC(=O)CCC4(C)C3CC(=O)C12C (centres undefined)
inactive: dose: 75.0 mg/kg/injection, schedule: Q01DX009 (ip), vehicle: carboxymethylcellulose (CMC) 94 % of control | dose: 150.0 mg/kg/injection, schedule: Q01DX009 (ip), vehicle: carboxymethylcellulose (CMC) 107 % of control | dose: 300.0 mg/kg/injection, schedule: Q01DX009 (ip), vehicle: carboxymethylcellulose (CMC) 105 % of control

O=C(c1ccccc1Cl)N(Cc1ccccc1)c1ccccc1
inactive: [5] 102 % of control | [6] 103 % of control | dose: 400.0 mg/kg/injection, schedule: Q01DX009 (ip), vehicle: Klucel (hydroxypropylcellulose) (HPC) 100 % of control

O=C(Nc1cc([N+](=O)[O-])cc([N+](=O)[O-])c1O)C(F)(F)F
inactive: dose: 25.0 mg/kg/injection, schedule: Q01DX001 (ip), vehicle: Klucel (hydroxypropylcellulose) (HPC) 102 % of control | dose: 50.0 mg/kg/injection, schedule: Q01DX001 (ip), vehicle: Klucel (hydroxypropylcellulose) (HPC) 96 % of control | dose: 100.0 mg/kg/injection, schedule: Q01DX001 (ip), vehicle: Klucel (hydroxypropylcellulose) (HPC) 100 % of control and 120 % of control | dose: 200.0 mg/kg/injection, schedule: Q01DX001 (ip), vehicle: Klucel (hydroxypropylcellulose) (HPC) 98 % of control

Nc1c(-c2ccccc2)nnn1-c1ccc2ccccc2c1
inactive: dose: 100.0 mg/kg/injection, schedule: Q04DX002 (ip), vehicle: gum acacia 101 % of control | dose: 200.0 mg/kg/injection, schedule: Q04DX002 (ip), vehicle: gum acacia 96 % of control | dose: 400.0 mg/kg/injection, schedule: Q04DX002 (ip), vehicle: gum acacia 96 % of control

CCn1cc(C(=O)O)c(=O)c2ccc(C)nc21
inactive: [13] 97 % of control | [14] 96 % of control | [15] 94 % of control

O=C(NCCNC(c1ccccc1)C(NCCNC(=O)c1ccccc1)c1ccccc1)c1ccccc1 (centres undefined)
inactive: dose: 25.0 mg/kg/injection, schedule: Q01DX009 (ip), vehicle: saline with Tween-80 94 % of control | dose: 50.0 mg/kg/injection, schedule: Q01DX009 (ip), vehicle: saline with Tween-80 89 % of control | [1] 97 % of control and 89 % of control | [4] 89 % of control

Nc1ccc(C(=O)Nc2ccc(N(CCCl)CCCl)cc2)cc1
inactive: [9] 117 % of control | [10] 98 % of control and 114 % of control | [11] 120 % of control | dose: 50.0 mg/kg/injection, schedule: Q04DX003 (ip), vehicle: saline 115 % of control | [12] 114 % of control | [16] 118 % of control | [17] 97 % of control

CC1(C)OCC(=NNC(N)=O)CO1
inactive: [11] 96 % of control | [12] 93 % of control | [16] 90 % of control | [17] 90 % of control
